# Target: CDK2 (UniProt P24941)
# Experiment: Enzyme Assay
row,Compound,IC50
1,CN(C)C(=O)N1CCn2cc(C3=C(c4cccc5ccoc45)C(=O)NC3=O)c3cccc(c32)C1,67.5 nM
2,O=C1NC(=O)C(c2cncc3ccoc23)=C1c1cn2c3c(cccc13)CNCC2,6.4 nM
3,O=C1NC(=O)C(c2cnn3ccccc23)=C1c1cn2c3c(cccc13)CNCC2,750 nM
4,O=C1NC(=O)C(c2cn3c4c(cccc24)CNCC3)=C1c1cccc2c1ccn2CCCO,297 nM
5,O=C1NC(=O)C(c2cn3c4c(cccc24)CNCC3)=C1c1ccc2c(c1)OCO2,1130 nM
6,CC(=O)N1CCn2cc(C3=C(c4cccc5ccoc45)C(=O)NC3=O)c3cccc(c32)C1,10.5 nM
7,CC(=O)N1CCn2cc(C3=C(c4cccc5ccsc45)C(=O)NC3=O)c3cccc(c32)C1,76 nM
8,O=C1NC(=O)C(c2cccc3ccoc23)=C1c1cn2c3c(cccc13)CNCC2,10.2 nM
9,CN(C)C(=O)N1CCn2cc(C3=C(c4cncc5ccoc45)C(=O)NC3=O)c3cccc(c32)C1,15.6 nM
10,CCC(=O)N1CCn2cc(C3=C(c4cncc5ccoc45)C(=O)NC3=O)c3cccc(c32)C1,13 nM
11,CN(C)C(=O)N1CCn2cc(C3=C(c4cccc5c4OCO5)C(=O)NC3=O)c3cccc(c32)C1,445 nM
12,O=C1NC(=O)C(c2cccc3ccsc23)=C1c1cn2c3c(cccc13)CNCC2,90 nM
13,Cn1ccc2c(C3=C(c4cn5c6c(cccc46)CNCC5)C(=O)NC3=O)cccc21,363 nM
14,CC(=O)N1CCn2cc(C3=C(c4cccc5c4OCO5)C(=O)NC3=O)c3cccc(c32)C1,60 nM
15,O=C1NC(=O)C(c2cn3c4c(cccc24)CNCC3)=C1c1cccc2c1OCO2,91 nM
16,O=C1NC(=O)C(c2cn3c4c(cccc24)CNCC3)=C1c1cccc2c1OCC2,33 nM
17,O=C1NC(=O)C(c2cn3c4c(cccc24)CNCC3)=C1c1cccc2occc12,205 nM

# Second part, the molecule after the results:
row,IC50,Compound
1,> 20000 nM,O=C1NC(=O)C(c2cnc3ncccn23)=C1c1cn2c3c(cccc13)CN(C(=O)N1CCCCC1)CC2
2,1630 nM,CC(C)C(=O)N1CCn2cc(C3=C(c4cnn5ccccc45)C(=O)NC3=O)c3cccc(c32)C1
3,629 nM,CC(=O)N1CCn2cc(C3=C(c4cnc5ccccn45)C(=O)NC3=O)c3cccc(c32)C1
4,17.6 nM,CC(=O)N1CCn2cc(C3=C(c4cccc5c4OCC5)C(=O)NC3=O)c3cccc(c32)C1
5,5500 nM,O=C1NC(=O)C(c2cnc3ccccn23)=C1c1cn2c3c(cccc13)CN(C(=O)C1CCOCC1)CC2
6,> 20000 nM,O=C1NC(=O)C(c2cnc3ccncn23)=C1c1cn2c3c(cccc13)CN(C(=O)N1CCOCC1)CC2
7,5580 nM,O=C1NC(=O)C(c2cnc3cnccn23)=C1c1cn2c3c(cccc13)CNCC2
8,7590 nM,O=C1NC(=O)C(c2cnc3ccncn23)=C1c1cn2c3c(cccc13)CNCC2
9,> 20200 nM,O=C1NC(=O)C(c2cnc3cnccn23)=C1c1cn2c3c(cccc13)CN(C(=O)N1CCOCC1)CC2
10,756 nM,O=C1NC(=O)C(c2cnc3ccccn23)=C1c1cn2c3c(cccc13)CNCC2
11,3030 nM,O=C1NC(=O)C(c2cnn3ccccc23)=C1c1cn2c3c(cccc13)CN(C(=O)N1CCOCC1)CC2
12,3560 nM,CC(C)C(=O)N1CCn2cc(C3=C(c4cnc5ccccn45)C(=O)NC3=O)c3cccc(c32)C1
13,8760 nM,O=C1NC(=O)C(c2cnc3ncccn23)=C1c1cn2c3c(cccc13)CNCC2
14,67.2 nM,O=C1NC(=O)C(c2cnc3cccnn23)=C1c1cn2c3c(cccc13)CNCC2
15,39.2 nM,O=C1NC(=O)C(c2cncc3ccoc23)=C1c1cn2c3c(cccc13)CN(C(=O)N1CCOCC1)CC2
16,35.7 nM,O=C1NC(=O)C(c2cncc3ccoc23)=C1c1cn2c3c(cccc13)CN(C(=O)N1CCCCC1)CC2
17,> 20000 nM,O=C1NC(=O)C(c2cnc3cnccn23)=C1c1cn2c3c(cccc13)CN(C(=O)N1CCCCC1)CC2
18,434 nM,O=C1NC(=O)C(c2cnc3cccnn23)=C1c1cn2c3c(cccc13)CN(C(=O)N1CCCCC1)CC2
19,8.1 nM,CC(=O)N1CCn2cc(C3=C(c4cncc5ccoc45)C(=O)NC3=O)c3cccc(c32)C1
20,> 20100 nM,O=C1NC(=O)C(c2cnc3ncccn23)=C1c1cn2c3c(cccc13)CN(C(=O)N1CCOCC1)CC2
21,2200 nM,CN(C)C(=O)N1CCn2cc(C3=C(c4cnn5ccccc45)C(=O)NC3=O)c3cccc(c32)C1

# From the Kinase Knowledgebase extract (Sharma et al. 2016)
